According to PubChem BioAssay AID2387 (Broad Institute, 2010):
Calls of active or inactive are those of the source.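 Rule for the calls: active = fitted EC50 no more than tenfold above the highest tested concentration; inconclusive = flat fit with 30 to 70% signal loss, or poor fit; inactive = the rest.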

test system: Candida albicans CaCi-2 growth (no fluconazole), Alamar Blue; experiment: C. albicans growth inhibition without fluconazole, dose response, counter-screen for fluconazole resistance reversal project, CaCi-2 strain, Alamar Blue fluorescence (AID 2387); settings: C. albicans CaCi-2 (fluconazole-resistant clinical isolate) growth without fluconazole, 48 h

Structure (SMILES) | EC50
COc1ccc(/C=C/c2cc(-c3ccc(C)cc3)o[n+]2C)cc1 | > 16 µM (inactive)
CCN1/C(=C/c2sc(-c3ccccc3C)c[n+]2C)Sc2ccccc21 | > 15 µM (inactive)
CC(=O)O/N=C/c1c(N2CCOCC2)n(C)c2ccccc12 | > 16 µM (inactive)
CCCC(=O)NC(c1ccc(C)cc1)c1ccc2cccnc2c1O (centres undefined) | > 15 µM (inactive)
O=C(c1ccc(Cn2c(=S)[nH]c3ccccc3c2=O)cc1)N1CCN(c2ccccn2)CC1 | > 15 µM (inactive)
N/C(Cc1ccccc1)=N\OC(=O)c1cccc2ccccc12 | > 15 µM (inactive)
CCCC(=O)NC(c1ccc(C(C)C)cc1)c1ccc2cccnc2c1O (centres undefined) | 11.1 µM
N#C/C(=C\c1ccc(N2CCOCC2)cc1)c1ccccc1 | > 16 µM (inactive)
CCOc1ccc(NC(=S)NNC(=O)c2ccc(Br)cc2)cc1 | > 16 µM (inactive)
COc1cccc(N=Nc2ccc3cccnc3c2O)c1 | 1.05 µM
Oc1ccc2ccccc2c1/C=N/Nc1nnc(-c2ncc[nH]2)c2ccccc12 | > 15 µM (inactive)
Cc1ccc(OCC(=O)NNC(=S)NC(=O)C2CC2)c(C)c1 | > 15 µM (inactive)
Cc1oc2ccc(OC(=O)N(C)C)cc2c1C(=O)OC(C)C | > 16 µM (inactive)
CCCC(=O)NC(c1ccco1)c1cc([N+](=O)[O-])c2cccnc2c1O (centres undefined) | > 15 µM (inactive)
O=C(Nc1nnc(-c2ccc3c(c2)CCCC3)o1)c1ccc(Cl)cc1Cl | 14.5 µM
CCOc1ccc(-c2ccc(NS(=O)(=O)c3ccc([N+](=O)[O-])cc3)cc2)nn1 | > 15 µM (inactive)
O=C(c1cc2c(s1)CCCCC2)N1CCN(c2ncccn2)CC1 | > 16 µM (inactive)
O=C(Nc1cccc(-c2cn3ccccc3n2)c1)c1cccc(Cl)c1 | > 16 µM (inactive)
O=C(Cc1ccc(Cl)cc1)NNC(=S)NC(=O)c1cccs1 | > 16 µM (inactive)
Cc1cc(C(=O)N/N=C/c2cc(Cl)cc([N+](=O)[O-])c2O)c2ccccc2n1 | > 15 µM (inactive)

Structure (SMILES) | EC50
O=c1c2cc(Br)ccc2nc(-c2cccc(C(F)(F)F)c2)n1O | 14.3 µM
O=[N+]([O-])c1cccc(-c2cc(-c3cc(Br)ccc3O)[nH]n2)c1 | > 15 µM (inactive)
CC1(O)CC(c2ccc(Cl)cc2)=NN1C(=O)c1ccc([N+](=O)[O-])cc1 (centres undefined) | > 16 µM (inactive)
Cc1ccccc1/C=C1\SC(=S)N(/N=C/c2cc([N+](=O)[O-])ccc2O)C1=O | > 16 µM (inactive)
Cc1cc(C)cc(OCC(=O)NNC(=S)NC(=O)C2CC2)c1 | > 15 µM (inactive)
O=[N+]([O-])c1nn(-c2ccc(Cl)cc2)n(O)c1=NCc1cccnc1 | > 15 µM (inactive)
O=C(c1ccc(Cn2c(=O)[nH]c3ccccc3c2=O)cc1)N1CCN(c2ccc(F)cc2)CC1 | > 15 µM (inactive)
CCCC(=O)NC(c1ccccc1OC)c1ccc2cccnc2c1O (centres undefined) | > 16 µM (inactive)
CN(C)S(=O)(=O)Oc1cccc(C(=O)Nc2ccc(Cl)c(Cl)c2)c1 | > 15 µM (inactive)
CCOc1ccc(N=Nc2ccc(O)c3ncccc23)cc1 | 2.3 µM
CCCn1nc([N+](=O)[O-])c(C(C#N)c2nc3ccccc3s2)c(Cl)c1=O (centres undefined) | > 16 µM (inactive)
Cc1cccc2sc(NNC(=O)c3cc(-c4cccs4)nc4ccccc34)nc12 | > 16 µM (inactive)
CCn1c(O)c(N=NC(=O)c2cccs2)c2ccccc21 | > 15 µM (inactive)
Cc1c(Cl)ccc2c1NC(=O)[C@]21N[C@@H](Cc2ccccc2)[C@H]2C(=O)N(c3ccc(F)cc3)C(=O)[C@H]21 | > 16 µM (inactive)
Cc1ccc2ccc3ccc(C)nc3c2n1 | > 15 µM (inactive)
O=C(Nc1nc(-c2ccccn2)cs1)c1ccc(Br)s1 | 10.2 µM
Cc1ccc(C(=O)Nc2cccc(-c3cn4ccccc4n3)c2)cc1 | > 16 µM (inactive)
Cc1ccc(S(=O)(=O)N(C)c2ccc(OCC(=O)Nc3nnc(C4CC4)s3)cc2)cc1 | > 15 µM (inactive)
COc1cccc(/C=N/Nc2ncnc3scc(-c4ccccc4)c23)c1O | 6.58 µM
